Experimental data published in patent publication US20250042890A1, “METHIONINE ADENOSYLTRANSFERASE 2a (MAT2A) INHIBITORS AND USES THEREOF” (Insilico Medicine IP Limited, priority 2021, published 2025).

Molecular target: MAT2A (Homo sapiens (Human), UniProt P31153)
Assay: MAT2A Biochemical Assay
Conditions: Biomol Green readout O.D.620; 1 uM start, 3-fold dilution, 10 doses; read-out: MAT2A enzymatic IC50
Procedure: Example A: MAT2A Biochemical Assay
Compounds described herein were tested as follows:
• (1). Prepared 1×Assay buffer. • (2). Preparation of compound concentration gradient: the compounds test condition were 1 uM start, 3-fold dilution, 10 doses, singlet or duplicate. 100× concentration compounds were prepared in 384-well plate. Then used Echo 550 to transfer 250 nl to a 384-reaction plate for later use. Added 250 nl of 100% DMSO to the negative and positive control wells. • (3). Prepared 1.67× final concentration enzyme solution with 1×Assay buffer. • (4). Added 15 μl of 1.67× Enzyme solution to the compound wells and positive control wells; added 15 μl of 1 Assay buffer to the negative control wells. • (5). Centrifuged at 1000 rpm for 30 seconds and incubate for 15 minutes. • (6). Prepared 2.5× final concentration Substrate mix solution with 1×Assay buffer. • (7). Added 10 μl of 2.5× final concentration Substrate mix solution to start the reaction. • (8). Centrifuged at 1000 rpm for 30 seconds and incubate for 150 minutes. • (9). Added 50 μl Biomol Green to stop the reaction, centrifuge at 1000 rpm for 30 seconds and incubate for 15 minutes. read O.D.620, process data.
• (1) Using GraphPad Prism 5. • (2) % Inh=(Max signal−Compound signal)/(Max signal−Min signal)*100. • (3) Max signal was obtained from the positive control wells. • (4) Min signal was obtained from the negative control wells.

Sequence of MAT2A (P31153 whole entry, species assumed): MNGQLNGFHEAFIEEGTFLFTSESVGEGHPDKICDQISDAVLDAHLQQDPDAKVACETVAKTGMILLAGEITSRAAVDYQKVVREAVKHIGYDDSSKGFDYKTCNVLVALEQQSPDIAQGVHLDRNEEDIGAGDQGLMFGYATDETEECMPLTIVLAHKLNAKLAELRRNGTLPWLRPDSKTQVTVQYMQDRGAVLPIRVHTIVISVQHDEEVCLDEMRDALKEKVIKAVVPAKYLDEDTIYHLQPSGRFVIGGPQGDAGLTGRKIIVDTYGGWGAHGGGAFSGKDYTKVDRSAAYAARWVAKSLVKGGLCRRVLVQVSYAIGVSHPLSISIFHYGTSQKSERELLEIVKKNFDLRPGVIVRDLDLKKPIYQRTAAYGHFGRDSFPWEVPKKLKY

An IC50 of less than 50 nM was found for C#CC1(Nc2nc(=O)n(-c3cccnc3C)c3cc(C(F)(F)F)ccc23)CC1 [Example 46, 4-((1-ethynylcyclopropyl)amino)-1-(2-methylpyridin-3-yl)-7-(trifluoromethyl)quinazolin-2 (1H)-one] in this work.
An IC50 of less than 50 nM was found for C#CCNc1nc(=O)n(-c2cccnc2)c2cc(C(F)(F)F)ccc12 [Example 7, 4-(prop-2-yn-1-ylamino)-1-(pyridin-3-yl)-7-(trifluoromethyl)quinazolin-2 (1H)-one] in this work.
An IC50 of less than 50 nM was found for C#CCNc1nc(=O)n(-c2cccnc2C)c2cc(Cl)cc(F)c12 [Example 30, 7-chloro-5-fluoro-1-(2-methylpyridin-3-yl)-4-(prop-2-yn-1-ylamino)quinazolin-2 (1H)-one] in this work.
An IC50 of less than 50 nM was found for C#CC1(Nc2nc(=O)n(-c3nccnc3C)c3cc(Cl)cc(OC)c23)CC1 [Example 25, 7-chloro-4-((1-ethynylcyclopropyl)amino)-5-methoxy-1-(3-methylpyrazin-2-yl)quinazolin-2 (1H)-one] in this work.
An IC50 of less than 50 nM was found for C#CCNc1nc(=O)n(-c2ccccc2Cl)c2cc(Cl)ccc12 [Example 10, 7-chloro-1-(2-chlorophenyl)-4-(prop-2-yn-1-ylamino)quinazolin-2 (1H)-one] in this work.
An IC50 of less than 50 nM was found for C#CCCNc1nc(=O)n(-c2ccccc2Cl)c2cc(Cl)ccc12 [Example 8, 4-(but-3-yn-1-ylamino)-7-chloro-1-(2-chlorophenyl)quinazolin-2 (1H)-one] in this work.
An IC50 of less than 50 nM was found for C#CC1(Nc2nc(=O)n(-c3cccnc3C)c3cc(C(F)(F)F)cc(OC)c23)CC1 [Example 49] in this work.
An IC50 of less than 50 nM was found for C#CCNc1nc(=O)n(-c2cccnc2)c2cc(Cl)ccc12 [Example 1, 7-chloro-4-(prop-2-yn-1-ylamino)-1-(pyridin-3-yl)quinazolin-2 (1H)-one] in this work.
An IC50 of less than 50 nM was found for C#CC(C)Nc1nc(=O)n(-c2cccnc2)c2cc(C(F)(F)F)ccc12 (stereo not drawn) [Example 64] in this work.
